Data from the NIST ThermoML archive (doi:10.1021/je030223f).
Where “and” joins values, the source holds several entries; their conditions need not be identical. Equal entries are not always repeated.

Conditions: Liquid, Calculated from knudsen effusion weight loss

[Br-].[Br-].[Br-].[Tm+3] [thulium tribromide]
Conditions | vapor or sublimation pressure
921 K | 0.0001148 kPa
924 K | 0.0001259 kPa
927 K | 0.0001349 kPa
931 K | 0.0002042 kPa
937 K | 0.0002042 kPa
938 K | 0.0002188 kPa and 0.0002754 kPa
942 K | 0.0002291 kPa
947 K | 0.000309 kPa and 0.0004074 kPa
949 K | 0.0003467 kPa
952 K | 0.0004074 kPa
953 K | 0.0003631 kPa
956 K | 0.0004571 kPa
958 K | 0.0005888 kPa
961 K | 0.0005012 kPa
964 K | 0.0006607 kPa
965 K | 0.0006607 kPa
967 K | 0.0007762 kPa
968 K | 0.000631 kPa
971 K | 0.0007244 kPa
974 K | 0.0009772 kPa
976 K | 0.000912 kPa
978 K | 0.001096 kPa
980 K | 0.0009772 kPa
984 K | 0.001318 kPa
987 K | 0.001288 kPa
988 K | 0.001514 kPa and 0.001349 kPa
990 K | 0.001445 kPa
995 K | 0.001622 kPa
999 K | 0.002399 kPa
1000 K | 0.001995 kPa
1001 K | 0.002239 kPa
1004 K | 0.00257 kPa and 0.002291 kPa
1006 K | 0.002692 kPa
1007 K | 0.002455 kPa
1009 K | 0.003236 kPa and 0.002951 kPa
1013 K | 0.003236 kPa and 0.004074 kPa
1015 K | 0.003467 kPa and 0.003162 kPa
1019 K | 0.003548 kPa
1020 K | 0.004571 kPa and 0.004677 kPa
1022 K | 0.00537 kPa
1024 K | 0.004365 kPa
1025 K | 0.004677 kPa
1026 K | 0.004786 kPa
1027 K | 0.004571 kPa
1028 K | 0.005623 kPa
1030 K | 0.005623 kPa
1033 K | 0.005495 kPa
1035 K | 0.006607 kPa
1037 K | 0.005754 kPa
1038 K | 0.007762 kPa
1039 K | 0.006918 kPa
1042 K | 0.006607 kPa
1043 K | 0.008511 kPa
1046 K | 0.00955 kPa
1048 K | 0.01288 kPa
1050 K | 0.00955 kPa
1056 K | 0.01349 kPa
1061 K | 0.01445 kPa
1063 K | 0.01318 kPa
1066 K | 0.01995 kPa
1070 K | 0.01995 kPa
1073 K | 0.02754 kPa
1076 K | 0.02512 kPa
1080 K | 0.0263 kPa
1088 K | 0.03388 kPa
1089 K | 0.04074 kPa
1092 K | 0.03467 kPa
1096 K | 0.04266 kPa
1103 K | 0.04677 kPa
1105 K | 0.06457 kPa
1107 K | 0.06166 kPa
1116 K | 0.06761 kPa
1118 K | 0.07943 kPa
1123 K | 0.09772 kPa
1127 K | 0.1047 kPa and 0.09333 kPa
1135 K | 0.1288 kPa
1136 K | 0.1349 kPa
1143 K | 0.166 kPa
1155 K | 0.2138 kPa
